From patent US20120128705A1, “C6ORF167 PEPTIDES AND VACCINES CONTAINING THE SAME” (OncoTherapy Science, Inc., priority 2009, published 2012)
Ends that are not written are not given here.

How the values were obtained:
[1] = system: COS7 cells transfected with C6orf167 and HLA-A*2402; assay: Specific CTL activity against target cells exogenously expressing C6orf167 and HLA-A*2402; assay type: cell-based, African green monkey; conditions: for Specific CTL activity against control COS7 cells: COS7 transfected with either full length C6orf167 or HLA-A*2402 alone; for Specific CTL activity against COS7 cells expressing both C6orf167 and HLA-A*2402: CTL lines raised by the peptide as effector cells
Description: The cDNA encoding an open reading frame of target genes or HLA-A*2402 was amplified by PCR. The PCR-amplified product was cloned into pCAGGS vector. The plasmids were transfected into COS7, which is the target genes and HLA-A24-negative cell line, using lipofectamine 2000 (Invitrogen) according to the manufacturer's recommended procedures. After 2 days from transfection, the transfected cells were harvested with versene (Invitrogen) and used as the target cells (5×10^4 cells/well) for CTL activity assay.
The established CTL lines raised against these peptides were examined for their ability to recognize target cells that endogenously express C6orf167 and HLA-A*2402 molecule. Specific CTL activity against COS7 cells which transfected with both the full length of C6orf167 and HLA-A*2402 molecule gene (a specific model for the target cells that exogenously express C6orf167 and HLA-A*2402 gene) was tested using the CTL lines raised by corresponding peptide as the effecter cells. COS7 cells transfected with either full length of C6orf167 genes or HLA-A*2402 were prepared as controls.

peptide-pulsed A24LCL [2] = assay: IFN-gamma ELISPOT assay on CTLs induced with peptide (HLA-A*2402); assay type: cell-based, human; conditions: CTLs from HLA-A*2402 positive donor, 3 rounds of stimulation, day 21; vs control wells without peptide
Description: Monocyte-derived dendritic cells (DCs) were used as antigen-presenting cells (APCs) to induce cytotoxic T lymphocyte (CTL) responses against peptides presented on human leukocyte antigen (HLA). DCs were generated in vitro as described elsewhere (Nakahara S et al., Cancer Res 2003 Jul. 15, 63(14): 4112-8). Specifically, peripheral blood mononuclear cells (PBMCs) isolated from a normal volunteer (HLA-A*2402 positive) by Ficoll-Plaque (Pharmacia) solution were separated by adherence to a plastic tissue culture dish (Becton Dickinson) so as to enrich them as the monocyte fraction. The monocyte-enriched population was cultured in the presence of 1,000 U/ml of granulocyte-macrophage colony-stimulating factor (GM-CSF) (R&D System) and 1,000 U/ml of interleukin (IL)-4 (R&D System) in AIM-V Medium (Invitrogen) containing 2% heat-inactivated autologous serum (AS). After 7 days of culture, the cytokine-induced DCs were pulsed with 20 micro-g/ml of each of the synthesized peptides in the presence of 3 micro-g/ml of beta 2-microglobulin for 3 hrs at 37 degrees C. in AIM-V Medium. The generated cells appeared to express DC-associated molecules, such as CD80, CD83, CD86 and HLA class II, on their cell surfaces (data not shown). These peptide-pulsed DCs were then inactivated by X-irradiation (20 Gy) and mixed at a 1:20 ratio with autologous CD8+ T cells, obtained by positive selection with CD8 positive Isolation Kit (Dynal). These cultures were set up in 48-well plates (Corning); each well contained 1.5×10^4 peptide-pulsed DCs, 3×10^5 CD8+ T cells and 10 ng/ml of IL-7 (R&D System) in 0.5 ml of AIM-V/2% AS medium. Three days later, these cultures were supplemented with IL-2 (CHIRON) to a final concentration of 20 IU/ml. On days 7 and 14, the T cells were further stimulated with the autologous peptide-pulsed DCs. The DCs were prepared each time by the same way described above. CTL was tested against peptide-pulsed A24LCL cells after the 3rd round of peptide stimulation on day 21 (Tanaka H et al., Br J Cancer 2001 Jan. 5, 84(1): 94-9; Umano Y et al., Br J Cancer 2001 Apr. 20, 84(8): 1052-7; Uchida N et al., Clin Cancer Res 2004 Dec. 15, 10(24): 8577-86; Suda T et al., Cancer Sci 2006 May, 97(5): 411-9; Watanabe T et al., Cancer Sci 2005 August, 96(8): 498-506).
(§1) To examine specific CTL activity, interferon (IFN)-gamma enzyme-linked immunospot (ELISPOT) assay and IFN-gamma enzyme-linked immunosorbent assay (ELISA) were performed. Specifically, peptide-pulsed A24LCL (1×10^4/well) was prepared as stimulator cells. Cultured cells in 48 wells were used as responder cells. IFN-gamma ELISPOT assay and IFN-gamma ELISA assay were performed under manufacture procedure.

peptide-pulsed A24LCL [3] = assay: IFN-gamma ELISA assay of CTL lines (HLA-A*2402); assay type: cell-based, human; conditions: target cells pulsed with corresponding peptide vs without peptide pulse
Procedure: CTLs were expanded in culture using the method similar to the one described by Riddell et al. (Walter E A et al., N Engl J Med 1995 Oct. 19, 333(16): 1038-44; Riddell S R et al., Nat Med 1996 February, 2(2): 216-23). A total of 5×10^4 CTLs were suspended in 25 ml of AIM-V/5% AS medium with 2 kinds of human B-lymphoblastoid cell lines, inactivated by Mitomycin C, in the presence of 40 ng/ml of anti-CD3 monoclonal antibody (Pharmingen). One day after initiating the cultures, 120 IU/ml of IL-2 were added to the cultures. The cultures were fed with fresh AIM-V/5% AS medium containing 30 IU/ml of IL-2 on days 5, 8 and 11 (Tanaka H et al., Br J Cancer 2001 Jan. 5, 84(1): 94-9; Umano Y et al., Br J Cancer 2001 Apr. 20, 84(8): 1052-7; Uchida N et al., Clin Cancer Res 2004 Dec. 15, 10(24): 8577-86; Suda T et al., Cancer Sci 2006 May, 97(5): 411-9; Watanabe T et al., Cancer Sci 2005 August, 96(8): 498-506).
as §1

peptide-pulsed A24LCL [4] = assay: IFN-gamma ELISA assay of CTL clones (HLA-A*2402); assay type: cell-based, human; conditions: clones by limiting dilution; target cells pulsed with peptide
Procedure: The dilutions were made to have 0.3, 1, and 3 CTLs/well in 96 round-bottomed micro titer plate (Nalge Nunc International). CTLs were cultured with 1×10^4 cells/well of 2 kinds of human B-lymphoblastoid cell lines, 30 ng/ml of anti-CD3 antibody, and 125 U/ml of IL-2 in a total of […] of AIM-V Medium containing 5% AS. 50 micro-1/well of IL-2 were added to the medium 10 days later so to reach a final concentration of 125 U/ml IL-2. CTL activity was tested on the 14th day, and CTL clones were expanded using the same method as described above (Uchida N et al., Clin Cancer Res 2004 Dec. 15, 10(24): 8577-86; Suda T et al., Cancer Sci 2006 May, 97(5): 411-9; Watanabe T et al., Cancer Sci 2005 August, 96(8): 498-506).
as §1

Substance | Specific CTL activity against control COS7 cells [1] | Specific CTL activity against COS7 cells expressing both C6orf167 and HLA-A*2402 [1] | Peptide specific CTL activity: IFN-gamma production by ELISPOT (peptide-pulsed A24LCL [2]) | IFN-gamma production of CTL lines by ELISA (peptide-pulsed A24LCL [3]) | IFN-gamma production of CTL clones by ELISA (peptide-pulsed A24LCL [4])
IYIDgVQEVF (IYIDGVQEVF; not fully specified; printed as IYIDgVQEVF) [SEQ ID NO: 33] | no significant specific CTL activity | potent CTL activity | potent IFN-gamma production | potent IFN-gamma production | 
LVLEILYML [SEQ ID NO: 30] |  |  | potent IFN-gamma production | potent IFN-gamma production | Potent IFN-gamma productions
LYIGHLSEL [SEQ ID NO: 2] | no significant specific CTL activity | potent CTL activity | potent IFN-gamma production | potent IFN-gamma production | Potent IFN-gamma productions
MYLHCCLTL [SEQ ID NO: 4] |  |  | potent IFN-gamma production | potent IFN-gamma production | Potent IFN-gamma productions
NFFSLFLLL [SEQ ID NO: 16] |  |  | potent IFN-gamma production | potent IFN-gamma production | Potent IFN-gamma productions
RYYYQVYSI [SEQ ID NO: 9] | no significant specific CTL activity | potent CTL activity | potent IFN-gamma production | potent IFN-gamma production | Potent IFN-gamma productions
VYGHQFMNL [SEQ ID NO: 7] | no significant specific CTL activity | potent CTL activity | potent IFN-gamma production | potent IFN-gamma production | Potent IFN-gamma productions
